Data reported in patent US20230097157A1, “Bicyclic Pyridin-2-one and pyrimidin-4-one Derivatives Useful As a Factor XIa Inhibitors” (Janssen Pharmaceutica NV, priority 2021, published 2023).
Read-outs that look alike come from different tables or passages of the source.

Legend:
Factor XIa = Factor XIa (Homo sapiens, UniProt P03951); assay: Factor XIa inhibition assay (FLINT) utilizing a fluorophore-quencher pair peptide substrate 5Fam-[…]-K5Tamra; format: biochemical; details: kinetic (KIN) reads, read-out: FXIa KIN Inh IC50
Sequence of Factor XIa (P03951 388-625 limits assumed): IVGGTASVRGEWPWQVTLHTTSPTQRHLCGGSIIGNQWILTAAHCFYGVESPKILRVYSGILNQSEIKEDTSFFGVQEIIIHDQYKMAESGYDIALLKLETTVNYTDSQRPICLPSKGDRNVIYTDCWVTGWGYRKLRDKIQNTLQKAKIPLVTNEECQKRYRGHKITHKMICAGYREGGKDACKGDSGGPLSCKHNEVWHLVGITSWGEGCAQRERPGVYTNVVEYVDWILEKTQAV
Sequence of Factor XIa (P03951 19-387 partner limits assumed): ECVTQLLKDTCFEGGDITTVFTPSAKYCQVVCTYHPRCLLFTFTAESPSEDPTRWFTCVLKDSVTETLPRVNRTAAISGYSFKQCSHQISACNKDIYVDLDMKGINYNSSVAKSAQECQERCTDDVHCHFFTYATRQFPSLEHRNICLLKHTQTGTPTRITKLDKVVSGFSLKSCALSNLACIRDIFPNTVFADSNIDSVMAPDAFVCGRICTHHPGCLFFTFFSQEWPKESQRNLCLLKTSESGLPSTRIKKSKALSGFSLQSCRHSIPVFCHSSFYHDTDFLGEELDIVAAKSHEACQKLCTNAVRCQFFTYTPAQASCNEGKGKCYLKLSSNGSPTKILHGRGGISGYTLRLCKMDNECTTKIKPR
Source text: Biological Example 1: Factor XIa Inhibition Assay Utilizing a Fluorophore-Quencher Pair Peptide Substrate A fluorescence intensity (FLINT) based assay was used to monitor inhibition of Factor XIa. The peptide substrate, 5Fam-[…]-K5Tamra (purchased from New England Peptide) was chosen based on the FXI sequence. Conversion of zymogen FXI to its activated form, FXIa, occurs by proteolytic cleavage by […] at two sites, Arg146 and Arg180. The custom peptide used in this assay was based on the Arg146 cleavage site of FXI. The peptide substrate was designed with a fluorophore-quencher pair, where the fluorescence is quenched until FXIa cleaves the 8-mer peptide after the Arg residue.
The Factor XIa FLINT assay was used with the following 5Fam-[…]-K5Tamra assay buffer: 50 mM Tris, pH 7.5, 100 mM NaCl, 5 mM CaCl2, 0.1 mg/mL BSA, 0.03% CHAPS. Assay buffer was prepared by mixing all ingredients fresh. 5Fam-[…]-K5Tamra peptide substrate was first prepared at 10 mM in 100% DMSO, then diluted to 3 mM in 100% DMSO. Assay buffer was then added directly to the 3 mM stock of substrate to prepare the 30 μM 2× working concentration (15 μM final concentration). The 2× Factor XIa stock solution was prepared by diluting 6.562 μM stock in 1× assay buffer for a […].
Test compound(s) were run in an 11-point, 3-fold serial dilution with a final top compound concentration of 100 nM. Final DMSO in assay was 2%. FXIa was preincubated with compound for 30-minutes and then substrate was added to initiate the reaction. The assay was run with kinetic (KIN) reads at 5 min intervals over 30 minutes. […] More specifically, the assay was run as follows: • 100 nL of 0.01 mM test compound was dispensed into black 384-well non-binding Greiner BioOne 784900 plate for 0.1 μM final concentration; • 5 μL of 1× assay buffer was dispensed to column 24 (low control) and 5 μL 2× Factor XIa solution was dispensed to columns 1-23 (column 23 high control); • the plate was centrifuged with a “cover” plate at 500 rpm for 1 min • the plate was pre-incubated for 30 minutes at room temperature with plate covered; • 5 μL of 2×5Fam-[…]-K5Tamra peptide substrate was dispensed into the entire plate, columns 1-24; • the plate was centrifuged with a “cover” plate at 500 rpm for 1 min; • the plate was read monitoring fluorescence intensity on the BMG PHERAStar at room temperature, using fluorescence module 485 nm/520 nm.
(§1) Percent inhibition (IC50) curves were generated per compound tested, and data was analyzed using a 4-parameter logistic fit using GeneData Screener. The relative fluorescence unit (RFU) values were normalized to percent inhibition using the following equation:
% inhibition=((HC−LC)−(compound−LC)/(HC−LC))*100 where LC−low control=mean signal of no Factor XIa or 100% inhibition of Factor XIa; HC−high control=mean signal of Factor XIa+5Fam-[…]-K5Tamra peptide substrate with DMSO only.
(§2) An 11-point dose response curve for the test compound(s) was generated using GENDATA to determine IC50 value based on the following equation:
Y=Bottom+(Top−Bottom)/(1+10^((log IC50−X)*HillSlope)) where Y is the % inhibition in the presence of X inhibitor concentration, Top=high control=mean signal of Factor XIa+5Fam-[…]-K5Tamra peptide substrate with DMSO only; Bottom=low control−mean signal of no Factor XIa or 100% inhibition of Factor XIa; HillSlope−Hill coefficient; and IC50=concentration of compound with 50% inhibition in relation to top/high control.

human plasma kallikrein = human plasma kallikrein (Homo sapiens, UniProt P03952); assay: Kallikrein inhibition assay (FLINT) utilizing a quenched AMC peptide substrate Z-Gly-Pro-Arg-AMC; format: biochemical; details: kinetic (KIN) reads, read-out: Kallikrein KIN Inh IC50
Sequence of human plasma kallikrein (P03952 391-638 limits assumed): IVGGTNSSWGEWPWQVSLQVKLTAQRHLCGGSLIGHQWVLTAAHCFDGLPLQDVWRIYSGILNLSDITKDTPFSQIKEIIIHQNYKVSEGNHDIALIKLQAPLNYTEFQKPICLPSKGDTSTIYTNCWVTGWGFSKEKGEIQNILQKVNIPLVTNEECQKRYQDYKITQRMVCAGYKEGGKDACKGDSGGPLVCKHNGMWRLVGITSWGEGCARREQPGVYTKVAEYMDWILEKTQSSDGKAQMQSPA
Sequence of human plasma kallikrein (P03952 20-390 partner limits assumed): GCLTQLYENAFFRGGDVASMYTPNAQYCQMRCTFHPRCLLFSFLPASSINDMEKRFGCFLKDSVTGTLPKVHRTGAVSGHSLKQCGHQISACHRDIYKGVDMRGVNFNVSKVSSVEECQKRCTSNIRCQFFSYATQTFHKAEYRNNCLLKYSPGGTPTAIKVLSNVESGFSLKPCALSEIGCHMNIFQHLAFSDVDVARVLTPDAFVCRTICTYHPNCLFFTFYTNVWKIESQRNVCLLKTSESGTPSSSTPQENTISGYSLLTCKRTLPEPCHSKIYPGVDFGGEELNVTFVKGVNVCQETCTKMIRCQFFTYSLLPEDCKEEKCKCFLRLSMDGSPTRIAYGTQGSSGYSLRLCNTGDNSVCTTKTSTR
Source text: Biological Example 2: Kallikrein Inhibition Assay Utilizing a Quenched AMC Peptide Substrate A fluorescence intensity (FLINT) based assay was used to monitor inhibition of human plasma kallikrein. The peptide substrate, Z-Gly-Pro-Arg-AMC (Purchased from Bachem; Catalog #I-1150) was chosen based on its relatively low KM for kallikrein which enables running the assay at lower substrate concentrations to control background fluorescence.
The Kallikrein FLINT assay was used with the following Z-Gly-Pro-Arg-AMC assay buffer: 50 mM Tris, pH 7.5, 100 mM NaCl, 5 mM CaCl2, 0.1 mg/mL BSA, 0.03% CHAPS. Assay buffer was prepared by mixing all ingredients fresh. 2× Z-Gly-Pro-Arg-AMC peptide substrate was prepared by diluting 10 mM stock into 1× assay buffer for a 100 μM working concentration (50 μM final concentration). The 2× kallikrein stock solution was prepared by diluting 14.76 μM stock in 1× assay buffer for a 4 nM working stock solution (2 nM final concentration).
Test compound(s) were run in an 11-point, 3-fold serial dilution with a final top compound concentration of 1 μM. Final DMSO in assay was 2%. Plasma kallikrein was pre-incubated for 30-minute with compound and then 50 μM substrate was added to initiate the reaction. The assay was run with kinetic (KIN) reads at 5 min intervals over 30 minutes. The time course was linear using 2 nM kallikrein greater than 30 minutes. More specifically, the assay was run as follows: • 100 nL of 0.1 mM test compound was dispensed into black 384-well non-binding Greiner BioOne 784900 plate for 1 μM final concentration; • 5 μL of 1× assay buffer was dispensed to columns 24 (low control) and 5 μL 2× human kallikrein enzyme solution was dispensed to columns 1-23 (column 23 high control); • the plate was centrifuged with a “cover” plate at 500 rpm for 1 min • the plate was pre-incubated for 30 minutes at room temperature with plate covered; • 5 μL of 2× Z-Gly-Pro-Arg-AMC peptide substrate was dispensed into the entire plate, columns 1-24; • the plate was centrifuged with a “cover” plate at 500 rpm for 1 min; • the plate was read monitoring fluorescence intensity on the BMG PHERAStar at room temperature, using fluorescence module 340 nm/440 nm.
as §1
% inhibition=((HC−LC)−(compound−LC)/(HC−LC))*100 where LC—low control=mean signal of […] or 100% inhibition of human kallikrein enzyme; HC—high control=mean signal of […]+Z-Gly-Pro-Arg-AMC peptide substrate with DMSO only.
as §2
Y=Bottom+(Top−Bottom)/(1+10^((log IC50−X)*HillSlope)) where Y is the % inhibition in the presence of X inhibitor concentration, Top=high control=mean signal of human kallikrein enzyme+Z-Gly-Pro-Arg-AMC peptide substrate with DMSO only; Bottom=low control−mean signal of no human kallikrein enzyme or 100% inhibition of human kallikrein enzyme; HillSlope−Hill coefficient; and IC50=concentration of compound with 50% inhibition in relation to top/high control.

| Compound | IC50 (Factor XIa; values in nM) [nM] | IC50 (human plasma kallikrein; values in nM) [nM] | IC50 (Factor XIa; unit μM) [nM] | IC50 (human plasma kallikrein; unit μM) [nM] |
| --- | --- | --- | --- | --- |
| CO[C@@H]1C[C@H](c2ncc(-c3ccc(N)nc3F)[nH]2)n2c1cc(-c1c(-n3cnnn3)ccc(Cl)c1F)cc2=O (relative stereo) [Example 151, (1*R,3*R)-3-(5-(6-Amino-2-fluoropyridin-3-yl)-1H-imidazol-2-yl)-7-(3-chloro-2-fluoro-6-(1H-tetrazol-1-yl)phenyl)-1-methoxy-2,3-dihydroindolizin-5(1H)-one] | 0.3 | 14 |  |  |
| Nc1nsc2cc(-c3cnc([C@H]4CC5(CC5)c5nc(-c6c(-n7cnnn7)ccc(Cl)c6F)cc(=O)n54)[nH]3)ccc12 [Example 82, (R)-6′-(5-(3-Aminobenzo[d]isothiazol-6-yl)-1H-imidazol-2-yl)-2′-(3-chloro-2-fluoro-6-(1H-tetrazol-1-yl)phenyl)-6′,7′-dihydro-4′H-spiro[cyclopropane-1,8′-pyrrolo[1,2-a]pyrimidin]-4′-one] | 53.8 | 142 |  |  |
| C[C@H]1C[C@@H](c2ncc(-c3ncc(N)nc3C(F)F)[nH]2)n2c1nc(-c1c(-n3cnnn3)ccc(Cl)c1F)cc2=O (relative stereo) [Example 86, (6*S,8*S)-6-(5-(5-Amino-3-(difluoromethyl)pyrazin-2-yl)-1H-imidazol-2-yl)-2-(3-chloro-2-fluoro-6-(1H-tetrazol-1-yl)phenyl)-8-methyl-7,8-dihydropyrrolo[1,2-a]pyrimidin-4(6H)-one] | > 100 | 819 |  |  |
| C[C@H]1C[C@@H](c2ncc(-c3ccc(=O)[nH]c3)[nH]2)n2c1cc(-c1c(-n3cnnn3)ccc(Cl)c1F)cc2=O [Example 16, (1S,3S)-7-(3-Chloro-2-fluoro-6-(1H-tetrazol-1-yl)phenyl)-1-methyl-3-(5-(6-oxo-1,6-dihydropyridin-3-yl)-1H-imidazol-2-yl)-2,3-dihydroindolizin-5(1H)-one] | 78.1 | 447 |  |  |
| C[C@H]1C[C@H](c2ncc(-c3cn[nH]c3)[nH]2)n2c1nc(-c1c(-n3cnnn3)ccc(Cl)c1F)cc2=O (stereo in doubt) [Example 109, (6*R,8*S)-6-(5-(1H-Pyrazol-4-yl)-1H-imidazol-2-yl)-2-(3-chloro-2-fluoro-6-(1H-tetrazol-1-yl)phenyl)-8-methyl-7,8-dihydropyrrolo[1,2-a]pyrimidin-4(6H)-one] |  |  | > 10000 | > 10000 |
| CNC(=O)c1ccc(-c2cnc([C@@H]3C[C@H](C)c4cc(-c5c(-n6cnnn6)ccc(Cl)c5F)cc(=O)n43)[nH]2)cn1 [Example 12, 5-(2-((1S,3S)-7-(3-Chloro-2-fluoro-6-(1H-tetrazol-1-yl)phenyl)-1-methyl-5-oxo-1,2,3,5-tetrahydroindolizin-3-yl)-1H-imidazol-5-yl)-N-methylpicolinamide] | 63.7 | 205 |  |  |
| C[C@@H]1C[C@H](c2ncc(-c3ccc4c(c3)CC(=O)N4)[nH]2)n2c1nc(-c1c(-n3cnnn3)ccc(Cl)c1F)cc2=O (stereo in doubt) [Example 112, (6*R,8*R)-2-(3-Chloro-2-fluoro-6-(1H-tetrazol-1-yl)phenyl)-8-methyl-6-(5-(2-oxoindolin-5-yl)-1H-imidazol-2-yl)-7,8-dihydropyrrolo[1,2-a]pyrimidin-4(6H)-one] | 1.6 | 7.8 |  |  |
| C[C@H]1C[C@H](c2ncc(-c3ncc(N)nc3C(F)F)[nH]2)n2c1nc(-c1c(-n3cnnn3)ccc(Cl)c1F)cc2=O (relative stereo) [Example 85, (6*R,8*S)-6-(5-(5-Amino-3-(difluoromethyl)pyrazin-2-yl)-1H-imidazol-2-yl)-2-(3-chloro-2-fluoro-6-(1H-tetrazol-1-yl)phenyl)-8-methyl-7,8-dihydropyrrolo[1,2-a]pyrimidin-4(6H)-one] | 52 |  |  | > 1000 |
| C[C@@H]1C[C@H](c2ncc(-c3cn[nH]c3)[nH]2)n2c1nc(-c1c(-n3cnnn3)ccc(Cl)c1F)cc2=O (stereo in doubt) [Example 108, (6*R,8*R)-6-(5-(1H-Pyrazol-4-yl)-1H-imidazol-2-yl)-2-(3-chloro-2-fluoro-6-(1H-tetrazol-1-yl)phenyl)-8-methyl-7,8-dihydropyrrolo[1,2-a]pyrimidin-4(6H)-one] | 90.3 |  |  | 7100 |
| COC(=O)Nc1ccc(-c2cnc([C@H]3C[C@H](C)c4nc(-c5c(-n6cnnn6)ccc(Cl)c5F)cc(=O)n43)[nH]2)cn1 (stereo in doubt) [Example 115, methyl (5-(2-((6R*,8S*)-2-(3-Chloro-2-fluoro-6-(1H-tetrazol-1-yl)phenyl)-8-methyl-4-oxo-4,6,7,8-tetrahydropyrrolo[1,2-a]pyrimidin-6-yl)-1H-imidazol-5-yl)pyridin-2-yl)carbamate] | 247 |  |  | 6000 |
| C[C@H]1C[C@@H](c2ncc(-c3ccc4c(c3)CC(=O)N4)[nH]2)n2c1nc(-c1c(-n3cnnn3)ccc(Cl)c1F)cc2=O (stereo in doubt) [Example 113, (6*S,8*S)-2-(3-Chloro-2-fluoro-6-(1H-tetrazol-1-yl)phenyl)-8-methyl-6-(5-(2-oxoindolin-5-yl)-1H-imidazol-2-yl)-7,8-dihydropyrrolo[1,2-a]pyrimidin-4(6H)-one] | 0.7 | 16.8 |  |  |
| C[C@H]1C[C@H](c2ncc(-c3ccc(NC(=O)C4CC4)nc3)[nH]2)n2c1nc(-c1c(-n3cnnn3)ccc(Cl)c1F)cc2=O (stereo in doubt) [Example 121, N-(5-(2-((6*R,8*S)-2-(3-Chloro-2-fluoro-6-(1H-tetrazol-1-yl)phenyl)-8-methyl-4-oxo-4,6,7,8-tetrahydropyrrolo[1,2-a]pyrimidin-6-yl)-1H-imidazol-5-yl)pyridin-2-yl)cyclopropanecarboxamide] | 675 |  |  | 4800 |
